Assays:
[1] = target: G protein-coupled receptor kinase 4 (Homo sapiens) (UniProt P32298); conditions: Compound concentration 1000.0 nM
[2] = target: Ribosomal protein S6 kinase alpha-5 (Homo sapiens) (UniProt O75582); conditions: Compound concentration 1000.0 nM
[3] = target: Serine/threonine-protein kinase Chk2 (Homo sapiens) (UniProt O96017); conditions: Compound concentration 1000.0 nM
[4] = target: Mitogen-activated protein kinase kinase kinase 2 (Homo sapiens) (UniProt Q9Y2U5); conditions: Compound concentration 1000.0 nM
[5] = target: Discoidin domain-containing receptor 2 (Homo sapiens) (UniProt Q16832); conditions: Compound concentration 1000.0 nM
[6] = target: Atypical kinase COQ8B, mitochondrial (Homo sapiens) (UniProt Q96D53); conditions: Compound concentration 1000.0 nM
[7] = target: Serine/threonine-protein kinase MAK (Homo sapiens) (UniProt P20794); conditions: Compound concentration 1000.0 nM
[8] = target: RAC-gamma serine/threonine-protein kinase (Homo sapiens) (UniProt Q9Y243); conditions: Compound concentration 1000.0 nM
[9] = target: Tyrosine-protein kinase JAK2 (Homo sapiens) (UniProt O60674); conditions: Compound concentration 1000.0 nM
[10] = target: Cyclin-dependent kinase 17 (Homo sapiens) (UniProt Q00537); conditions: Compound concentration 1000.0 nM
[11] = target: cAMP-dependent protein kinase catalytic subunit alpha (Homo sapiens) (UniProt P17612); conditions: Compound concentration 1000.0 nM
[12] = target: Rhodopsin kinase GRK1 (Homo sapiens) (UniProt Q15835); conditions: Compound concentration 1000.0 nM
[13] = target: Mast/stem cell growth factor receptor Kit (Homo sapiens) (UniProt P10721); conditions: Compound concentration 1000.0 nM
[14] = target: Mitogen-activated protein kinase 14 (Homo sapiens) (UniProt Q16539); conditions: Compound concentration 1000.0 nM
[15] = target: Receptor-interacting serine/threonine-protein kinase 2 (Homo sapiens) (UniProt O43353); conditions: Compound concentration 1000.0 nM
[16] = target: Tyrosine-protein kinase TXK (Homo sapiens) (UniProt P42681); conditions: Compound concentration 1000.0 nM
[17] = target: Insulin receptor-related protein (Homo sapiens) (UniProt P14616); conditions: Compound concentration 1000.0 nM
[18] = target: SRSF protein kinase 2 (Homo sapiens) (UniProt P78362); conditions: Compound concentration 1000.0 nM
[19] = target: Serine/threonine-protein kinase Nek3 (Homo sapiens) (UniProt P51956); conditions: Compound concentration 1000.0 nM
[20] = target: STE20/SPS1-related proline-alanine-rich protein kinase (Homo sapiens) (UniProt Q9UEW8); conditions: Compound concentration 1000.0 nM
[21] = target: Mast/stem cell growth factor receptor Kit (Homo sapiens) (UniProt P10721); conditions: Compound concentration 1000.0 nM; remark: listed apart in the source
[22] = tested on: Tyrosine-protein kinase ABL1 (Homo sapiens), P00519 [T315I]; conditions: Compound concentration 1000.0 nM
[23] = tested on: Receptor-type tyrosine-protein kinase FLT3 (Homo sapiens), P36888 [N841I]; conditions: Compound concentration 1000.0 nM
[24] = target: Alpha-2C adrenergic receptor (Homo sapiens) (UniProt P18825); conditions: Compound concentration 10.0 uM
[25] = target: Tyrosine-protein kinase FRK (Homo sapiens) (UniProt P42685); conditions: Compound concentration 1000.0 nM
[26] = target: Mu-type opioid receptor (Homo sapiens) (UniProt P35372); conditions: Compound concentration 10.0 uM
[27] = target: Serine/threonine-protein kinase LATS2 (Homo sapiens) (UniProt Q9NRM7); conditions: Compound concentration 1000.0 nM
[28] = target: Inhibitor of nuclear factor kappa-B kinase subunit alpha (Homo sapiens) (UniProt O15111); conditions: Compound concentration 1000.0 nM
[29] = target: NUAK family SNF1-like kinase 1 (Homo sapiens) (UniProt O60285); conditions: Compound concentration 1000.0 nM
[30] = target: Dual specificity mitogen-activated protein kinase kinase 4 (Homo sapiens) (UniProt P45985); conditions: Compound concentration 1000.0 nM
[31] = tested on: Mast/stem cell growth factor receptor Kit (Homo sapiens), P10721 [A829P]; conditions: Compound concentration 1000.0 nM
[32] = target: Maternal embryonic leucine zipper kinase (Homo sapiens) (UniProt Q14680); conditions: Compound concentration 1000.0 nM
[33] = target: Tyrosine-protein kinase Mer (Homo sapiens) (UniProt Q12866); conditions: Compound concentration 1000.0 nM
[34] = target: Ribosomal protein S6 kinase beta-1 (Homo sapiens) (UniProt P23443); conditions: Compound concentration 1000.0 nM
[35] = target: Dual specificity tyrosine-phosphorylation-regulated kinase 1A (Homo sapiens) (UniProt Q13627); conditions: Compound concentration 1000.0 nM
[36] = target: Dual specificity testis-specific protein kinase 1 (Homo sapiens) (UniProt Q15569); conditions: Compound concentration 1000.0 nM
[37] = target: Membrane-associated tyrosine- and threonine-specific cdc2-inhibitory kinase (Homo sapiens) (UniProt Q99640); conditions: Compound concentration 1000.0 nM
[38] = target: Myotonin-protein kinase (Homo sapiens) (UniProt Q09013); conditions: Compound concentration 1000.0 nM
[39] = tested on: Mast/stem cell growth factor receptor Kit (Homo sapiens), P10721 [V559D]; conditions: Compound concentration 1000.0 nM
[40] = target: Mitogen-activated protein kinase 8 (Homo sapiens) (UniProt P45983); conditions: Compound concentration 1000.0 nM
[41] = target: Casein kinase I isoform alpha-like (Homo sapiens) (UniProt Q8N752); conditions: Compound concentration 1000.0 nM
[42] = tested on: Tyrosine-protein kinase ABL1 (Homo sapiens), P00519 [Y253F]; conditions: Compound concentration 1000.0 nM
[43] = target: Interleukin-1 receptor-associated kinase 1 (Homo sapiens) (UniProt P51617); conditions: Compound concentration 1000.0 nM
[44] = target: Ephrin type-B receptor 4 (Homo sapiens) (UniProt P54760); conditions: Compound concentration 1000.0 nM
[45] = target: Macrophage-stimulating protein receptor (Homo sapiens) (UniProt Q04912); conditions: Compound concentration 1000.0 nM

Sequence of Mast/stem cell growth factor receptor Kit (Homo sapiens) (P10721 whole entry): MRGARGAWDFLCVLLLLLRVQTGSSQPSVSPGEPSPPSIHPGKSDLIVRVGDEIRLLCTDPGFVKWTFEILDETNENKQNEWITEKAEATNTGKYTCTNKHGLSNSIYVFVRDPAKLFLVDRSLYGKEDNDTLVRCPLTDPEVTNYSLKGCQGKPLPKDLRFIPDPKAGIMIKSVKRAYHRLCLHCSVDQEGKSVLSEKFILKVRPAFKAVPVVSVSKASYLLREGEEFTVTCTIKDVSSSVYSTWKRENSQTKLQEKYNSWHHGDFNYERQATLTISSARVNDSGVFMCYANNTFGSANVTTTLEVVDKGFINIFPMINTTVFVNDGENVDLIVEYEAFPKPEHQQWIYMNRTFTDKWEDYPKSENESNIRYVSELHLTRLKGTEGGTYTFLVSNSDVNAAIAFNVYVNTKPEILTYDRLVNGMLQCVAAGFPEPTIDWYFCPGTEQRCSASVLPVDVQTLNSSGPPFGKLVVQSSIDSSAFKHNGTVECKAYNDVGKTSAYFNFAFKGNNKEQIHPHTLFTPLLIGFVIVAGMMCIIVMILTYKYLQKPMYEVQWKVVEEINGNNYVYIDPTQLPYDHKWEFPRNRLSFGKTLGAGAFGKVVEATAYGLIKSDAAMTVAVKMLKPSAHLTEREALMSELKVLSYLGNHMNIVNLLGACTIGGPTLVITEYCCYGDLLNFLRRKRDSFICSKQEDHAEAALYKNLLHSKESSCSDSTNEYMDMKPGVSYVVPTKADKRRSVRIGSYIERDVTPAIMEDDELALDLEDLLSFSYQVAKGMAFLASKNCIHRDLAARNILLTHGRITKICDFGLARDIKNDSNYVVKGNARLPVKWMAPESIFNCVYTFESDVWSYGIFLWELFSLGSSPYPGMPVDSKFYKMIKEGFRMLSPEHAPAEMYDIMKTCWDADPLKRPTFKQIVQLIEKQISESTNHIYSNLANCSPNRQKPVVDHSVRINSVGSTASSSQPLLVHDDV
Sequence of Mitogen-activated protein kinase kinase kinase 2 (Homo sapiens) (Q9Y2U5 whole entry, the tested form may be a part): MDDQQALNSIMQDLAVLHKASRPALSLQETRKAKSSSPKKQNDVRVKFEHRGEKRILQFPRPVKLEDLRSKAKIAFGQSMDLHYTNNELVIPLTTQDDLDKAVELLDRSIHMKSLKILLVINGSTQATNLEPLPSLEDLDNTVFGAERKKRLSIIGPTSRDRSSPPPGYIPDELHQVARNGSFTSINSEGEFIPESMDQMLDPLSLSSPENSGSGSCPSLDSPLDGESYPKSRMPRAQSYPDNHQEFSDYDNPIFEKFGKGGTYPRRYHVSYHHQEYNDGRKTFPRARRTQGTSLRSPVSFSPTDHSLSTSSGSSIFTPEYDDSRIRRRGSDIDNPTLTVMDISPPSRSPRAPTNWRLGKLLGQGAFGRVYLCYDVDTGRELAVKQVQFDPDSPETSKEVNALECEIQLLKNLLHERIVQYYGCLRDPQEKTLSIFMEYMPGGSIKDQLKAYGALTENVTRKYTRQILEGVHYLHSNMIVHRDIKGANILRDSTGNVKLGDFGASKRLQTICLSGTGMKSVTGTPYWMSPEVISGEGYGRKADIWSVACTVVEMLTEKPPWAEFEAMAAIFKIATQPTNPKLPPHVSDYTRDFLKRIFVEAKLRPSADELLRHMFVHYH
Sequence of Casein kinase I isoform alpha-like (Homo sapiens) (Q8N752 whole entry, canonical isoform): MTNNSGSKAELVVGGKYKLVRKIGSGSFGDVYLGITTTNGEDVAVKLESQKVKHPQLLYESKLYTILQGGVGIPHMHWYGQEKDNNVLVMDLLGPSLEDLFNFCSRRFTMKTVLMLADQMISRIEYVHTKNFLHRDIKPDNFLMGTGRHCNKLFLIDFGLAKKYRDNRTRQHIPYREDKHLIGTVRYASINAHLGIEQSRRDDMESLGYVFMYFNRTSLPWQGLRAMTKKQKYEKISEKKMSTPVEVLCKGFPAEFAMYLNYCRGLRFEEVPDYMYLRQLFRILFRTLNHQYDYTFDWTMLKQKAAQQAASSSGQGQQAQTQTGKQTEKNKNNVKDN
Sequence of Myotonin-protein kinase (Homo sapiens) (Q09013 whole entry): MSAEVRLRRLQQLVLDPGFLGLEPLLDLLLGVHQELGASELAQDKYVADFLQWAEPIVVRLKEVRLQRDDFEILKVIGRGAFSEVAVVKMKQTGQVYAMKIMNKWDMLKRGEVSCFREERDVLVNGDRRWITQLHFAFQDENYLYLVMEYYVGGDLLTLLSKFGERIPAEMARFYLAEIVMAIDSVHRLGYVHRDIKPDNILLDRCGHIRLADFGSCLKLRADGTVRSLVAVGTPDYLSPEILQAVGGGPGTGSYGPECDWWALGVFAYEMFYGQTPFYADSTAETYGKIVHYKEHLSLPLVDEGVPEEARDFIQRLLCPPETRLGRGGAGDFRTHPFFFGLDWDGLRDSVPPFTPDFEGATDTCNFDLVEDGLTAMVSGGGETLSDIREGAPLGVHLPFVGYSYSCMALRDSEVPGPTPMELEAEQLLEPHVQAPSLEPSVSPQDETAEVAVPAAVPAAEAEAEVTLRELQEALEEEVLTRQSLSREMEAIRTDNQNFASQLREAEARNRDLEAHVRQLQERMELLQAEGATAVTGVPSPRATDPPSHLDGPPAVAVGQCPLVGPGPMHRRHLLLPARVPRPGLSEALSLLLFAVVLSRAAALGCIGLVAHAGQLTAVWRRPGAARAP
Sequence of Tyrosine-protein kinase TXK (Homo sapiens) (P42681 whole entry): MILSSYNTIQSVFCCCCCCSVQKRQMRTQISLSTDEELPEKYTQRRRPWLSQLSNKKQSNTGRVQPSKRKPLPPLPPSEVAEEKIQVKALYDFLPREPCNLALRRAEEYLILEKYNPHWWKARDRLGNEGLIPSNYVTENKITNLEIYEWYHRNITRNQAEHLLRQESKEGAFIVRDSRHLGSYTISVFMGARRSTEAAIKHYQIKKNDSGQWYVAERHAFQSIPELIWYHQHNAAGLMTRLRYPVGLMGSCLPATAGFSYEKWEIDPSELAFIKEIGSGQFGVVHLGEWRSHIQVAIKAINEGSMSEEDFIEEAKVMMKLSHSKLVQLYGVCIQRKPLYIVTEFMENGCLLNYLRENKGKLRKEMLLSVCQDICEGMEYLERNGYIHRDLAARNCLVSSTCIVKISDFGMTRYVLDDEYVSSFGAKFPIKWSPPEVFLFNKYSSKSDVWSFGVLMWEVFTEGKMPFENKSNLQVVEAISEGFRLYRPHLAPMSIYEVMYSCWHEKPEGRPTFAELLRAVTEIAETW
Sequence of RAC-gamma serine/threonine-protein kinase (Homo sapiens) (Q9Y243 whole entry): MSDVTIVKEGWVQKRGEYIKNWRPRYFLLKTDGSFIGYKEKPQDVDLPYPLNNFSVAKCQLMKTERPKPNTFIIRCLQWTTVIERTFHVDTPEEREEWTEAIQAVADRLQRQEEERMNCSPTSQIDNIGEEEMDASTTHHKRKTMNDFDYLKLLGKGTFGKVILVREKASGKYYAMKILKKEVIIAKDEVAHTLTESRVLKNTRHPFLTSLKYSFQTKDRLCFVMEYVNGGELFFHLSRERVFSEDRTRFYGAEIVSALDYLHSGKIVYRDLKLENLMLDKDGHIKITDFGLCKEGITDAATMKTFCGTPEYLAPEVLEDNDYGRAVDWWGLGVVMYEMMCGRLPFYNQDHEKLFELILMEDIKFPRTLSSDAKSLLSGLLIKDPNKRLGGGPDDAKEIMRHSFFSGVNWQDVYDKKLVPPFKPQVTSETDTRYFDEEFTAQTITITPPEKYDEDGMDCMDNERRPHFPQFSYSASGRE
Sequence of Ribosomal protein S6 kinase alpha-5 (Homo sapiens) (O75582 whole entry, looked up): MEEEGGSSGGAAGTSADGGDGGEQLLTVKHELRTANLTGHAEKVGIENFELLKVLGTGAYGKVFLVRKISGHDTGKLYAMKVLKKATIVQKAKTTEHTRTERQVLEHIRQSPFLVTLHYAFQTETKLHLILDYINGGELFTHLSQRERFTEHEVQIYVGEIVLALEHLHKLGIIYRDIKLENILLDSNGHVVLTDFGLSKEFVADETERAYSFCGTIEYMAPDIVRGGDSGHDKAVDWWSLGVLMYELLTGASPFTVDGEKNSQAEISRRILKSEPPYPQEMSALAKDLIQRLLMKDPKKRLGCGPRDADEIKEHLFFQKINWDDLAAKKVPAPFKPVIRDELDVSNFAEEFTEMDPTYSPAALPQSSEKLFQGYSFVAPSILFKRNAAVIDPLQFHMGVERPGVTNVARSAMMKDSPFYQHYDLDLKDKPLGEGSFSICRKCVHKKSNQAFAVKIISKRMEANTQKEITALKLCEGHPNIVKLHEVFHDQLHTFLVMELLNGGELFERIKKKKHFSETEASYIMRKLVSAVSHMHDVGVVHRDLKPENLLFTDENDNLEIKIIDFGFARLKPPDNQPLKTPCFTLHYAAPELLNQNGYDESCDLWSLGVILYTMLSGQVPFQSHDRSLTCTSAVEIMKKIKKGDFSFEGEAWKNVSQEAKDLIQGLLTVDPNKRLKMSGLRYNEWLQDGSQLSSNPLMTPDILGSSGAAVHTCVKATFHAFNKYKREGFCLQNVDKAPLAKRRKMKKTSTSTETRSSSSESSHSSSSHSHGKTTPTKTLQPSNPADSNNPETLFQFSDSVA
Sequence of Cyclin-dependent kinase 17 (Homo sapiens) (Q00537 whole entry, looked up): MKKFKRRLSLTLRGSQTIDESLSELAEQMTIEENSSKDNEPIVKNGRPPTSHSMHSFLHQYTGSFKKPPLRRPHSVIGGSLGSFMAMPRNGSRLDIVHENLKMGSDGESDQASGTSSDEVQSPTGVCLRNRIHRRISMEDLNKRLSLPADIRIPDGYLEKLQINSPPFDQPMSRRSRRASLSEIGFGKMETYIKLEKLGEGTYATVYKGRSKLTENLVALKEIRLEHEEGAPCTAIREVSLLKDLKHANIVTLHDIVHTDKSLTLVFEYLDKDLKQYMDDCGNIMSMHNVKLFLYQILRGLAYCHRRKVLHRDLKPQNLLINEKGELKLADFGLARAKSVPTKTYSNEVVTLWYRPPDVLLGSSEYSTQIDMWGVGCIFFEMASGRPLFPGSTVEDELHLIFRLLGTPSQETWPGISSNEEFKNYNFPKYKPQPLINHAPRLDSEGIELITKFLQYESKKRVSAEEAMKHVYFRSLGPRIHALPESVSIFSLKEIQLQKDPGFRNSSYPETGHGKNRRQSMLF

`CC(=O)Nc1c(C(C)=O)c(=O)n(C)c2nc(-c3ccc(Cl)cc3Cl)c(-c3ccc(Cl)cc3)cc12` [NAPHTHYRIDINONE] gave a residual activity [1] of 100%, a residual activity [2] of 86% and a residual activity [3] of 100%. The residual activity [4] was 100%, the residual activity [5] was 100% and the residual activity [6] was 100%. For the same compound, the residual activity [7] was 100%, the residual activity [8] was 100% and the residual activity [9] was 100%. It also gave a residual activity [10] of 100%, a residual activity [11] of 100% and a residual activity [12] of 78%. The residual activity [13] was 100%, the residual activity [14] was 100% and the residual activity [15] was 100%. For the same compound, the residual activity [16] was 100%, the residual activity [17] was 100% and the residual activity [18] was 100%. It also gave a residual activity [19] of 100%, a residual activity [20] of 100% and a residual activity [21] of 100%. For the same compound, the residual activity [22] was 100%, the residual activity [23] was 100% and the inhibition [24] was 3.44%. For the same compound, the residual activity [25] was 100%, the inhibition [26] was 8.16% and the residual activity [27] was 100%. The residual activity [28] was 100%, the residual activity [29] was 100% and the residual activity [30] was 100%. For the same compound, the residual activity [31] was 100%, the residual activity [32] was 100% and the residual activity [33] was 100%. For the same compound, the residual activity [34] was 95%, the residual activity [35] was 100% and the residual activity [36] was 100%. It also gave a residual activity [37] of 100%, a residual activity [38] of 100% and a residual activity [39] of 100%. The residual activity [40] was 71%, the residual activity [41] was 100% and the residual activity [42] was 96%. The residual activity [43] was 97%, the residual activity [44] was 100% and the residual activity [45] was 100%.

For `CC(=O)c1c(NS(C)(=O)=O)c2cc(-c3ccc(Cl)cc3)c(-c3ccc(Cl)cc3Cl)nc2n(C)c1=O` [MRL-CB1-NC], the residual activity [1] was 94%, the residual activity [2] was 72% and the residual activity [3] was 100%. It also gave a residual activity [4] of 93%, a residual activity [5] of 96% and a residual activity [6] of 97%. The residual activity [7] was 93%, the residual activity [8] was 91% and the residual activity [9] was 97%. It also gave a residual activity [10] of 100%, a residual activity [11] of 100% and a residual activity [12] of 84%. The residual activity [13] was 100%, the residual activity [14] was 100% and the residual activity [15] was 96%. For the same compound, the residual activity [16] was 100%, the residual activity [17] was 93% and the residual activity [18] was 100%. The residual activity [19] was 67%, the residual activity [20] was 92% and the residual activity [21] was 100%. It also gave a residual activity [22] of 93%, a residual activity [23] of 100% and an inhibition [24] of 78.9%. The residual activity [25] was 100%, the inhibition [26] was 34.4% and the residual activity [27] was 78%. It also gave a residual activity [28] of 100%, a residual activity [29] of 86% and a residual activity [30] of 89%. For the same compound, the residual activity [31] was 96%, the residual activity [32] was 100% and the residual activity [33] was 100%. For the same compound, the residual activity [34] was 95%, the residual activity [35] was 77% and the residual activity [36] was 100%. It also gave a residual activity [37] of 99%, a residual activity [38] of 89% and a residual activity [39] of 100%. The residual activity [40] was 63%, the residual activity [41] was 100% and the residual activity [42] was 94%. The residual activity [43] was 92%, the residual activity [44] was 92% and the residual activity [45] was 88%.

Reference: ChEMBL document CHEMBL4507287, “Data for DCP probe MRL-650” (2021)
